Data as given in paper PMC7016952, “Characterization of the Menin-MLL Interaction as Therapeutic Cancer Target” (Cancers, 2020).

Legend:
CYP 2D6 = CYP 2D6 (Homo sapiens, UniProt P10635); details: cited from earlier work
menin-MLL interaction = target: T1, menin-MLL interaction (Homo sapiens, UniProt O00255); assay: TR-FRET menin-MLL binding assay; details: BAY-155 vs MI-503
T1 construct: recombinant full length, His-tagged menin
T1 sequence (O00255 1-610): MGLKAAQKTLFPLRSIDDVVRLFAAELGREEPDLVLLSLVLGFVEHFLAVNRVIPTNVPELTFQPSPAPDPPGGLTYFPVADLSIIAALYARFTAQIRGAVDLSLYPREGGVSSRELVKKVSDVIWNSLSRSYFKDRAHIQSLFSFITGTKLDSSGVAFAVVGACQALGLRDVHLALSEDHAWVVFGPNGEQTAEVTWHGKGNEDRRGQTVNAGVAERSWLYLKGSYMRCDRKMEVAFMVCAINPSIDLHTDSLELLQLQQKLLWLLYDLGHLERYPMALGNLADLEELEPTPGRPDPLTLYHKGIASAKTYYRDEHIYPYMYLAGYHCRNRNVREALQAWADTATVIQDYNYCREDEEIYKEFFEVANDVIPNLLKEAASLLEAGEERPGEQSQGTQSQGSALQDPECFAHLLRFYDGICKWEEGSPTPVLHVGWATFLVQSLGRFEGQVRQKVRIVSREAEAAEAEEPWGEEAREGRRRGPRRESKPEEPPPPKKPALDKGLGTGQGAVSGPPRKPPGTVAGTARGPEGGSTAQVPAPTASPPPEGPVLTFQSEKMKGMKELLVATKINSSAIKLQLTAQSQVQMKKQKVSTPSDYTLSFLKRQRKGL

VCaP xenograft = VCaP xenograft efficacy; format: in vivo, mice
Protocol: (§1) Tumor cells were injected subcutaneously into the flanks of 6- to 9-week old animals. Efficacy studies in xenograft models were performed at Bayer or EPO GmbH (Berlin-Buch, Germany) using NMRI nu/nu, SCID, BALB/c Nude female mice or SCID male mice (VCaP tumors). All animal studies were conducted in accordance with the animal welfare laws and were approved by the State Office for Health and Social Affairs Berlin (LAGeSo). Experiments were run under the animal license B3600a0007. Compound treatment started at a predefined tumor size or burden or at a predefined day after cell inoculation. BAY-155 was administered orally (p.o.) at various doses and regorafenib, tamoxifen and enzalutamide (resuspended in PEG400/H2O 6/4 or PEG400/EtOH 9/1) were used as control treatment for RKO, MCF7 and VCaP xenografts, respectively. Subcutaneous tumor volumes were determined by caliper measurement.

MCF7 cells = assay: RNA-seq after E2 stimulation, MCF7; format: cell-based, human
Protocol: (§2) Total RNA was isolated using RNeasy-Plus Mini kit (Qiagen, Hilden, Germany). RNA (1 μg) was reverse transcribed using SuperScript III First-Strand Synthesis SuperMix (Life Technologies) and the generated cDNA was analyzed with commercial primers (Supplementary Materials Table S1) by qRT-PCR using TaqMan Fast Advanced Master Mix (Life Technologies). For the RNA-seq study, ZR-75-1, BT474, PANC-1, MiaPaCa-2, 22RV1, JMSU-1, DLD-1, SW1463, LoVo and G401 cells were treated with 5 µM BAY-155 or DMSO for 48 h prior to RNA extraction. After 48 h of 5 µM BAY-155 or DMSO treatment, MCF7, VCaP and LNCaP cells were stimulated for further 12 h with 0.1 nM of E2 (ß-Estradiol) or 1 nM R1881, respectively. MCF7, VCaP and LNCaP cells were cultured in starvation medium (containing 5 µM BAY-155 or DMSO) 6 h before stimulation. RNA was isolated using RNeasy-Plus Mini kit (Qiagen). The purified RNA was used for library preparation (Illumina, San Diego, CA, USA. TruSeq Stranded mRNA Kit) and the generated libraries were sequenced (Illumina, HiSeq2500 HTv4, SR, dual-indexing, 50 cycles).
RNA-seq reads were aligned to hg38 using STAR aligner. Protein-coding genes with more than 10 reads in more than three samples were used for the analysis (total samples N = 86; genes N = 13,003). DESeq2 was used to find genes differentially expressed upon treatment by the menin inhibitor in each cell line compared to DMSO or hormonal treatment (for MCF-7, LNCaP and VCaP cell lines). […] GSEA analysis was run on the pre-ranked list based on logFC in prostate (VCaP and LNCaP) and breast (MCF7) cell lines. Data are available at GEO under accession number GSE136272.

CYP 3A4 = CYP 3A4 (Homo sapiens, UniProt P08684); details: cited from earlier work
CYP 3A4, sequence (P08684 whole entry): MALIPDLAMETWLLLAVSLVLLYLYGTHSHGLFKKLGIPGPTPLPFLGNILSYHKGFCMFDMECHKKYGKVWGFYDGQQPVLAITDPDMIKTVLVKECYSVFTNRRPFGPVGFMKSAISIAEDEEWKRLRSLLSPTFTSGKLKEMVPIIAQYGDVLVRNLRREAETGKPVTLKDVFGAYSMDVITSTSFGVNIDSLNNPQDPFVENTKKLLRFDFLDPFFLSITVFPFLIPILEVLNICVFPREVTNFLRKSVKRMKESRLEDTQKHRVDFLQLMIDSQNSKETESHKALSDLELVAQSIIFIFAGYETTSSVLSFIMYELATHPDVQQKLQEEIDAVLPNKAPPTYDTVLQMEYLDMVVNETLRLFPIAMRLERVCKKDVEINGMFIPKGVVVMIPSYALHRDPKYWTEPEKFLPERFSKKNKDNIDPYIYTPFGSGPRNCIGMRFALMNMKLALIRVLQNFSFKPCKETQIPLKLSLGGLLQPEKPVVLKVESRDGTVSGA

CYP 2C9 = CYP 2C9 (Homo sapiens, UniProt P11712); details: cited from earlier work
CYP 2C9, sequence (P11712 whole entry): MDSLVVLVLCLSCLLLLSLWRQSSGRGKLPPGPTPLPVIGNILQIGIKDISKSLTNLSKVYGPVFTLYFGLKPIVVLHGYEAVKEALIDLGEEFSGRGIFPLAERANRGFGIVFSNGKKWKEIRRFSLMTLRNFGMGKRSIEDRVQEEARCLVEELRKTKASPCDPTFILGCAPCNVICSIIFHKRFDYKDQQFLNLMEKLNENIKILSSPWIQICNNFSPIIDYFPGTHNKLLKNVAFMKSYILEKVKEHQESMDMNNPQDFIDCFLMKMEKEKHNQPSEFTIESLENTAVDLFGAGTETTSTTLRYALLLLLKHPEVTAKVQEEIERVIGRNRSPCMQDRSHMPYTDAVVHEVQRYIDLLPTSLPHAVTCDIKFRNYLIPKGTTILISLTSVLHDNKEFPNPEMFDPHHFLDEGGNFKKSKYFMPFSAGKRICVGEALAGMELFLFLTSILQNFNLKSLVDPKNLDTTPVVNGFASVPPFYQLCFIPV

[1] = tested on: 401 cancer cell lines derived from 28 tissues of origin; assay: Cell line proliferation panel (OmniScreen, 401 cancer cell lines); format: cell-based
Protocol: The characterization of proliferation effects in 401 cancer cell lines was performed on the OmniScreen™ platform (CrownBio). Briefly, cells were seeded at the appropriate density for a five-day growth period and treated with BAY-155 (10 µM maximal concentration with 3.16-fold serial dilutions with 9 dose levels) or left untreated as control. For determination of viability the CellTiter-Glo® Luminescent Cell Viability Assay (Promega, Madison, WI, USA) was used. For absolute IC50 determination, a dose-response curve was fitted using a nonlinear regression model with a sigmoidal dose-response using GraphPad Prism 5.0. The surviving rate (%) = (LumTest-LumMedium control)/(LumNon-treated-LumMedium control) × 100%.

ZR-75-1 cells = assay: RNA-seq differential gene expression, ZR-75-1; format: cell-based; details: ZR-75-1, 5 µM, 48 h
Protocol: as §2
(§3) RNA-seq reads were aligned to hg38 using STAR aligner. Protein-coding genes with more than 10 reads in more than three samples were used for the analysis (total samples N = 86; genes N = 13,003). […]

[2] = tested on: ER signaling pathway genes in MCF7 tumor samples; assay: Ex vivo gene expression in MCF7 xenografts; parameters: species or system mice; details: 27 days of treatment
Protocol: as §2
(§4) Tumors were harvested, dissociated and total RNA was extracted using the TissueLyser (Qiagen, Hilden, Germany) together with RNeasy-Plus Mini kit according to the manufacturer protocol.

MCF7 xenograft = MCF7 xenograft efficacy; format: in vivo, mice
Protocol: as §1

JMSU-1 cells = assay: RNA-seq differential gene expression, JMSU-1; format: cell-based; details: JMSU-1, 5 µM, 48 h
Protocol: as §2, §3

[3] = tested on: MEIS1, MNDA and CD11b expression in MV4;11 and MOLM-13 xenografts; assay: Ex vivo gene expression in MV4;11 and MOLM-13 xenografts; parameters: species or system mice; details: 17 (MV4;11) or 11 (MOLM-13) days of treatment
Protocol: as §2, §4

CYP 2D6, sequence (P10635 whole entry): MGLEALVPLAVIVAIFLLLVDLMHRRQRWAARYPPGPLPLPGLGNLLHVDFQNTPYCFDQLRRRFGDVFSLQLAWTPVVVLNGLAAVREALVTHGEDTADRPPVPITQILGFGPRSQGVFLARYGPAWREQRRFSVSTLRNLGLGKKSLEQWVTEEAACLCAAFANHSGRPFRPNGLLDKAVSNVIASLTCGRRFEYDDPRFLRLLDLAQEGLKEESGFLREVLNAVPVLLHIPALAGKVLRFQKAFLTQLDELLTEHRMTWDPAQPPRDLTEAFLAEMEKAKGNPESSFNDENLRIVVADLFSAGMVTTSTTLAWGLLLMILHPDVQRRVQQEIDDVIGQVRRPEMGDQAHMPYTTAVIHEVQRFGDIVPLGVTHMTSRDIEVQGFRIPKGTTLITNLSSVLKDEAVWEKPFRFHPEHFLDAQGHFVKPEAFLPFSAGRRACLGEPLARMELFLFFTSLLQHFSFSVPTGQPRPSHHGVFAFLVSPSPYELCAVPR

Cc1c(CN2CCC3(CC2)CN(c2ncnc4sc(CC(F)(F)F)cc24)C3)ccc2c1cc(C#N)n2CC(N)=O [BAY-155]
IC50 (CYP 2D6): > 20 µM | fold better inhibitory IC50 compared to MI-503 (menin-MLL interaction): 10 fold | tumor volume and tumor weight (VCaP xenograft): no significant effects | GSEA of estradiol (E2) up- and down-regulated gene sets (MCF7 cells; MCF7): slight reverse regulation | E2 down-regulated genes significantly changed (MCF7 cells; MCF7, 5 µM, E2): 13 genes | E2 up-regulated genes significantly changed (MCF7 cells; MCF7, 5 µM, E2): 26 genes | IC50 (CYP 3A4): > 20 µM | IC50 (CYP 2C9): > 20 µM | proliferation of cancer models originating from breast, prostate or bone [1]: not affected | sensitivity of all tested MLL-AF4, MLL-AF9 and MLL-TD leukemia cell lines [1]: sensitive | IC50 ([1]; 120 h, read-out: IC50 in the vast majority of tested cell line models): > 10 µM | sensitivity of KYSE-150 and RKO cells in the in vitro screen ([1]; IC50 in similar range to MV4;11 and MOLM-13): highly sensitive | share of liver-derived models with reduced proliferation ([1]; n = 33, IC50 below 5 µM taken as significant): 30% | share of blood cell-derived models with reduced proliferation ([1]; n = 73, IC50 below 5 µM taken as significant): 26% | number of differentially expressed genes (ZR-75-1 cells): 10 genes | EGR3, GREB1 and PGR1 expression ex vivo [2]: no significant effects | tumor volume and tumor weight (MCF7 xenograft): no significant effects | number of differentially expressed genes (JMSU-1 cells): 665 genes | MEIS1 expression ex vivo [3]: concentration-dependent and significant down-regulation | MNDA and CD11b expression ex vivo [3]: up-regulation
